In US12371402B2, “Mitochondrial activity inhibitors targeting tumoral metabolism” (CENTRE LEON BERARD, priority 2018, dated 2025):

Legend:
[1] = system: RL follicular lymphoma cells; experiment: WST-1 cell viability test, RL follicular lymphoma cells; type: cell-based; conditions: Homo sapiens, 24 hours incubation
Source text: (§1) RL cells (from ATCC, CRL-2261), SUDHL-4 cells (from ATCC, CRL-2957), GRANTA cells, BJAB Burkitt lymphoma cells, SUDHL4 DLBCL lymphoma cells, REC-1 Mantle lymphoma cells, RL follicular lymphoma cells, MTA NK/T lymphoma cells, HUT-78 Sesary T lymphoma cells, Karpas-384 gamma/delta PTCL lymphoma cells and SR-786 ALCL/Alk+ lymphoma Wild type/rescue MEF_LKB1+/+(mouse embryonic fibroblasts) cells were taken as a control; and mutated MEF_LKB−/− cells in which LKB1 gene was invalidated (Bardeesy et al., 2002). All cells were grown in flasks in RPMI 1640 Glutamax medium 11 mM Glucose supplemented with 10% fetal bovine serum and 1% penicillin-streptomycin medium supplemented with 10% fetal bovine serum and 1% penicillin-streptomycin. Cells were maintained at a constant temperature of 37° C. in a humidified atmosphere containing 5% CO2/95% air.
(§2) Drugs (compound 1 and Metformin) were initially diluted in DMSO (=vehicle dimethylsulfoxide). […] Lymphoma cells in exponential phase of growth were counted and assessed for more than 95% viability by trypan blue coloration. […] The formazan dye produced by viable cells can be quantified by measuring the absorbance at 440 nm. Cell viability was assessed comparing wells containing drugs to those with vehicle only. […]

[2] = system: Karpas-384 gamma/delta PTCL lymphoma cells; experiment: WST-1 cell viability test, Karpas-384 lymphoma cells; type: cell-based; conditions: Homo sapiens, 24 hours incubation
Source text: as §1, §2

[3] = system: Human B lymphoma and T lymphoma cell lines; experiment: WST-1 cell viability test, panel of human B and T lymphoma cell lines; type: cell-based
Source text: as §1, §2

INS-1 cells = experiment: WST-1 cell viability test, pancreatic neuroendocrine tumor cell line INS-1; type: cell-based
Experimental: (§3) Drugs (compound 1 and Metformin) were initially diluted in DMSO (=vehicle dimethylsulfoxide). Appropriate dilutions of these stocks were performed in DMSO and finally in culture medium; 15 μl of each dilution was distributed in 4 wells (replicates) according to the plate schedule to obtain final drug concentrations (0.1 μM to 1 mM for metformin and 1 μM to 200 μM for compound 1) after cells were added. Control wells with vehicle at the appropriate dilution only were included. Lymphoma cells in exponential phase of growth were counted and assessed for more than 95% viability by trypan blue coloration. […] Adherent cells (MEFs cells and INS-1 cells were seeded the day before to obtain 80% confluence the day of experiment. Culture medium was renewed with 35 μL fresh medium and 15 μl of appropriated drug dilution was then added. These plates were incubated 24 hours at 37° C./5% CO2. Then addition of 5 μl of WST-1 cell proliferation reagent (Roche, #11644807001) was performed, before incubation 2-4 hours at 37° C. and lecture of the absorbance following the manufacturer instructions. WST-1 assays are non-radioactive, rapid and more sensitive than MTT, XTT, or MTS-based assays. The WST-1 assay is based on the cleavage of the tetrazolium salt WST-1 to formazan by cellular mitochondrial dehydrogenases. […] Cell viability was assessed comparing wells containing drugs to those with vehicle only. […]

[4] = system: MEF_LKB-/- and MEF_LKB1+/+ cells; experiment: WST-1 cell viability test, MEF cells with or without the LKB1 gene; type: cell-based, mouse; conditions: MEF_LKB-/- versus MEF_LKB1+/+, 24 hours
Experimental: as §3

[5] = system: Follicular Lymphoma (RL model) xenograft; experiment: CDX xenograft tumor volume, RL model; type: in vivo, female SCID mice; conditions: 50 mg/kg intraperitoneal five times a week, versus DMSO control
Source text: (§4) CDX (cell derived xenografts) models of human NHL were used: Follicular Lymphoma (RL model), Diffuse Large B Cell Lymphoma (SUDHL-4 model). Cells were subcutaneously implanted; since the tumor growth was not homogeneous, it was decided to implant surgically 2×2 mm pieces from these initial tumours. Animals were female SCID mice.
(§5) Mice were randomized when the tumors reach a mean volume of 100 mm^3 for the 2 groups (control and compound 1). […] The endpoints are defined by animal ethics as a tumor diameter of >18 mm, significant weight loss or alteration of animal well-being. In order to assess the effectiveness of the compound 1 on tumorigenesis, tumor volume was measured three times a week. The sizes of the primary tumors were measured using calipers and the tumor volume (TV) was extrapolated to a sphere using the formula TV=4/3 π×r3, by calculating the mean radius from the two measurements. The median and standard deviation were also calculated for each group. Median is preferred to mean in order to exclude the extreme values.
(§6) COMPOUND 1 was administered by intraperitoneal injection five times a week, at dose 50 mg/kg. Control DMSO was administered also by intraperitoneal injection five times a week. […]
(§7) Unless specified, the non-parametric Mann-Whitney test was performed on the tumor volume values (mm^3) measured on the day of the first euthanasia.

[6] = system: Diffuse Large B Cell Lymphoma (SUDHL-4 model) xenograft; experiment: CDX xenograft tumor volume, SUDHL-4 model; type: in vivo, female SCID mice; conditions: SUDHL-4 xenograft, 50 mg/kg intraperitoneal five times a week, versus DMSO control
Source text: as §4, §5, §6, §7

[7] = system: mitochondrial ECT complex1; experiment: Oxygen consumption in permeabilized tumoral cells (RL, SUDHL4, GRANTA); type: cell-based, human
Experimental: Human Cell lines: RL cells (from ATCC, CRL-2261) and SU-DHL-4 cells (from ATCC, CRL-2957) were grown in flasks in RPMI 1640—Glutamax medium supplemented with 10% fetal bovine serum and 1% penicillin-streptomycin. GRANTA cells were grown in flasks in DMEM-Glutamax medium supplemented with 10% fetal bovine serum and 1% penicillin-streptomycin. Cells were maintained at a constant temperature of 37° C. in a humidified atmosphere containing 5% CO2/95% air.
(§8) Oxygen consumption was measured in a thermostatically controlled oxigraph vessel equipped with a Clarck oxygen electrode at 37° C. (Strathkelvin MS200A system).
(§9) Experiment was started by the addition of 100 μg/ml digitonine and either 5 mM Glutamate plus 2.5 mM Malate or 5 mM Succinate plus 1 μM rotenone, followed by the addition of 500 μM ADP (state 3) then 2 μg/ml Oligomycin (state 4).
Cell lines: RL, SU-DHL-4 or GRANTA cells were centrifuged and counted. A cell suspension (100 million of trypan blue negative cells per ml) was prepared in respiration buffer. 10 million cells were added in the oxigraph chamber containing respiration buffer. The final volume was 1 ml. compound 1 (0.5 to 20 μM) was added to permeabilized cells after the addition of ADP or oligomycin.
(§10) All measures were realized 2 min after drugs addition.

[8] = system: mitochondrial ECT complex1; experiment: Oxygen consumption in permeabilized fresh hepatocytes; type: cell-based; conditions: permeabilized rat liver hepatocytes, state 3, 2 min after addition
Experimental: Rat liver hepatocytes were isolated from overnight-starved animals by enzymatic digestion with collagenase according to the method of Berry and Friend modified by Groen.
Primary hepatocytes were directly used after isolation (for metabolic analyses). Cells were maintained at a constant temperature of 37° C. in a humidified atmosphere containing 5% CO2/95% air. The medium was removed after 4 h (time necessary for cell attachment) and replaced by fresh medium.
as §8, §9
Primary hepatocytes: 5.105 fresh hepatocytes were added in the oxigraph chamber containing respiration buffer (KET buffer: KCl 125 mM, EGTA 1 mM, Tris 20 mM) supplemented with 0.1% BSA, 5 mM inorganic phosphate (Pi). The final volume was 1 ml. Oxygen consumption rate was measured before and after the addition of compound 1 (1, 20, 50 or 100 μM) either in resting (state 2) or phosphorylating (state 3) condition.
as §10

[9] = system: panel of hematological cell lines; experiment: Live cell number by flow cytometry, panel of hematological cell lines; type: cell-based, human; conditions: 10 μM, 48 hours
Experimental: (§11) All the cells were routinely maintained in RPMI 1640 culture medium 11 mM glucose supplemented with 10% FCS. The day of experiment, cells (80 to 100.10^3/well) in exponential phase of growth were seeded in 96 wells plates, in 100 μl of culture medium final volume, in absence (not treated: NT) or presence of indicated compounds concentrations. Stocks of compounds were 10 mM in DMSO, and final DMSO concentration in assay was 0.1%. The control not treated (NT) assays contains 0.1% DMSO. After 48h of incubation at 37° C., cells were immediately analyzed by flow cytometry. Apoptosis was detected using Annexin V/PI staining protocol, according to manufacturer indications.
(§12) Compounds 2 to 4 (named respectively C2 to C4 in the figures) were tested and compared with IACS-010759 (IACS), an OXPHOS inhibitor in clinical phase 1 trial which is assessed in parallel (Molina et al., 2018).

[10] = system: Karpas-422 DLBCL lymphoma; experiment: Apoptosis by Annexin V/PI flow cytometry, Karpas-422; type: cell-based, human; conditions: Karpas-422, 10 μM, 48 hours
Experimental: as §11, §12

Compound | IC50 [1] | IC50 [2] | IC50 compared with IC50 of metformin ([3]; all lymphomas, 24 hours incubation, WST-1) | sensitivity of lymphoma cell lines (viability) ([3]; human B and T lymphoma, 24 hours, 1 μM to 200 μM) | IC50 compared with IC50 of metformin (INS-1 cells; 24 hours incubation) | IC50 (INS-1 cells; Rattus norvegicus, INS1, 24 hours incubation) | toxicity on cells with or without LKB1 (viability) [4] | tumor growth (tumor volume) [5] | tumor growth (tumor volume) [6] | mitochondrial oxygen consumption ([7]; permeabilized RL, SUDHL4 and GRANTA cells, state 3, 2 min after addition) | dose inhibiting oxygen consumption, tumoral cells versus fresh hepatocytes ([7]; permeabilized tumoral cells (RL, SUDHL4, GRANTA) compared with permeabilized fresh hepatocytes) | mitochondrial oxygen consumption [8] | number of living cells [9] | apoptosis (apoptotic cells/cell decrease) [10]
N=C(Nc1ccccc1)SCCCCCCSC(=N)Nc1ccccc1 [compound 1] | < 10 µM | < 10 µM | far below IC50 of metformin | sensible to compound 1 | far below IC50 of metformin | < 10 µM | more toxic for the cells that do not express the LKB1 protein | reduces tumor growth | reduces tumor growth | inhibits mitochondrial oxygen consumption in all cells tested | about 25 times smaller | inhibits mitochondrial oxygen consumption in all cells tested |  | 
N=C(Nc1ccc2ccccc2c1)SCCCCCCSC(=N)Nc1ccc2ccccc2c1 [compound 4] |  |  |  |  |  |  |  |  |  |  |  |  | induces a differential decrease in the number of living cells | can induce apoptosis
